Columns and labels:
[1] = tested on: mast cell degranulation (MCPT-1); assay: Passive systemic anaphylaxis: MCPT-1 in blood; format: in vivo, mouse; conditions: passive systemic anaphylaxis (anti-DNP-IgE, DNP-BSA i.v.); oral once a day for 3 days; inotodiol 20, ethanol extract 320, cholesterol 20, dexamethasone 10, imatinib 20 mg/kg; FIG. 5(B)
Method: (§1) On the third day after oral administration, 3 μg of anti-dinitrophenol (DNP)-IgE was intravenously injected, and after 24 hours, mast cell degranulation was induced by intravenous injection of 80 μg of DNP-conjugated bovine serum albumin (BSA). The rectal temperature of mice induced mast cell degranulation was measured, and the amount of MCPT-1 in the blood was analyzed.

[2] = tested on: CD4^+ T cells expressing DO11.00 TCR; assay: Adoptive transfer of CFSE-stained DO11.10 TCR CD4+ T cells, ovalbumin-induced division (flow cytometry); format: in vivo, mouse; conditions: BALB/C mice; oral once a day for four days; inotodiol 20 mg/kg, ethanol extract 320 mg/kg, imatinib 10 mg/kg; five days after ovalbumin injection; FIG. 4(B)
Method: (§2) In order to examine the effect of an inotodiol compound or a chaga mushroom extract containing an inotodiol compound on CD4^+ T cell activity regulation, analysis of expression level of cytokine produced by Th2 CD4^+ T cell and adoptive transfer experiments using CD4^+ TCR transgenic T cells that express DO11.00 TCR, i.e., the ovalbumin-derived peptide specific T cell receptor (TCR), were performed.
Experiments to measure a degree of ovalbumin-derived peptide specific T cell immune response from an animal experiment were performed as follows. Cells were isolated from the lymph nodes of transgenic mice expressing DO11.10TCR. The isolated cells were fluorescence-stained with carboxyfluorescein succinimidyl ester (CFSE), and 2×10^6 cells were injected intravenously into BALB/C mice. Cells were injected intraperitoneally with ovalbumin (50 μg) and alum to induce division of CD4^+ T cells expressing DOII.00 TCR. Oral administration of 20 mg/kg of the inotodiol compound, 320 mg/kg of the chaga mushroom ethanol extract, 10 mg/kg of dexamethasone, 10 mg/kg of imatinib, or 20 mg/kg of the cholesterol was performed once a day for four days starting from one day after ovalbumin injection. After five days of ovalbumin injection, the cells were isolated from BALB/C lymph nodes, stained with anti-CD4 antibody and anti-DO11.10 antibody, and measured CFSF fluorescence intensity of the CD4^+ T cell expressing DOII.00 TCR using flow cytometry to determine the cell division degree. Then, the number of cells was measured. Here, the CFSF fluorescence intensity decreased as the cell division increases.

[3] = tested on: mast cells in small intestine; assay: Number of mast cells in small intestine (toluidine staining), food allergy mouse model; format: in vivo; conditions: ovalbumin food allergy BALB/C mice; toluidine stained small intestine sections; FIG. 2(B)
Method: (§3) To prepare allergy mouse models, 5-week-old male BALB/C mice were used. Food allergy models were prepared using ovalbumin of chicken as an allergy-inducing material (allergen).
(§4) For immunization of the mice, 20 μg of ovalbumin was mixed with 2 mg of alum, and the mixture was intraperitoneally injected to the mice two times every two weeks. Food allergy induction was induced by performing the second immunization injection and two weeks thereafter, 50 mg of ovalbumin was orally administered thereto five times every three days to cause an allergic response. […] Here, as a positive control, a mice group was used to which dexamethasone was administered every day. 50 mg of ovalbumin alone or the chaga mushroom extract, the fraction, or the inotodiol compound was lastly administered thereto, followed by observation on symptoms caused by allergy one hour thereafter.

[4] = tested on: egg white protein-specific IgE; assay: Serum IgE concentration by ELISA, food allergy mouse model; format: in vivo; conditions: ovalbumin food allergy BALB/C mice, serum one day after last administration, FIG. 3(A)
Method: as §4

mast cell degranulation = assay: Passive systemic anaphylaxis: rectal temperature; format: in vivo, mouse; conditions: passive systemic anaphylaxis (anti-DNP-IgE, DNP-BSA i.v.); oral once a day for 3 days; inotodiol 20 mg/kg, ethanol extract 320 mg/kg; FIG. 5(A)
Method: as §1

[5] = tested on: cytokine produced by Th2 CD4^+ T cells (IL-5, IL-13, IFN-γ); assay: Cytokine production by mesenteric lymph node cells of treated food allergy mice (ELISA); format: in vivo, mouse; conditions: mLN cells of treated food allergy mice cultured three days with 100 μg/mL ovalbumin (OVA); FIG. 4(A)
Method: as §2
For the expression of cytokine, a sample was treated in the same manner as in Experimental Example 1, and the cells were isolated from the mesenteric lymph node (mLN) of mice of each group after one day. At this time, a group treated with 10 mg/kg of dexamethasone, a group treated with 20 mg/kg of imatinib (Gleevec), which is used as a mast cell […] therapeutic agent, and a group treated with 20 mg/kg of cholesterol that is similar in structure to the inotodiol compound were added. The isolated cells were dispensed into wells of a 96-well plate at a rate of 1×10^6 cells/well. RPMI complete medium (containing 10% fetal bovine serum (FBS), penicillin, streptomycin, and glutamine) containing ovalbumin or RPMI complete medium containing 100 μg/mL of ovalbumin was inoculated and culture for three days under a condition of 37° C. and 5% CO2. […]

[6] = tested on: food allergy-induced mouse model; assay: Anaphylaxis symptom score in ovalbumin food allergy mouse model; format: in vivo; conditions: ovalbumin food allergy BALB/C mice; oral daily; inotodiol, dexamethasone, cholesterol 20 mg/kg; extract and fractions 320 mg/kg; score 0-4 (Table 3); FIG. 1(B)
Method: as §3, §4

[7] = tested on: eosinophils in small intestine; assay: Eosinophil infiltration in small intestine (H&E staining), food allergy mouse model; format: in vivo; conditions: ovalbumin food allergy BALB/C mice; H&E stained small intestine sections; FIG. 2(A)
Method: as §3, §4
The mice of each experimental group in Experimental Example 1 were anesthetized and cut the abdomen. Then, the small intestine was removed, fixed with formalin, treated with paraffin, permeated with paraffin, and microsectioned using microtome, thereby obtaining tissue sections. The obtained small intestine sections were stained with hematoxylin and eosin (H&E) to observe eosinophil cells.

[8] = tested on: food allergy-induced mouse model; assay: Stool observation (diarrhea score) in ovalbumin food allergy mouse model; format: in vivo; conditions: ovalbumin food allergy BALB/C mice; oral daily; inotodiol, dexamethasone, cholesterol 20 mg/kg; extract and fractions 320 mg/kg; score 0-4 (Table 4); FIG. 1(C)
Method: as §3, §4

[9] = tested on: mast cell protease-1 (MCPT-1); assay: Serum MCPT-1 concentration by ELISA, food allergy mouse model; format: in vivo; conditions: ovalbumin food allergy BALB/C mice, serum one day after last administration, FIG. 3(B)
Method: as §4

Cc1ccc(NC(=O)c2ccc(CN3CCN(C)CC3)cc2)cc1Nc1nccc(-c2cccnc2)n1 [Imat., imatinib]
concentration of MCPT-1 in the blood after induced mast cell degranulation [1]: level of increase in concentration of MCPT-1 was significantly decreased | CFSE fluorescence intensity of CD4+ T cell expressing DO11.00 TCR (cell division degree) [2]: no difference in the CFSE fluorescence intensity and the number of cells, as compared with the unimmune group | number of CD4+ T cells expressing DO11.00 TCR [2]: no difference in the CFSE fluorescence intensity and the number of cells, as compared with the unimmune group

CC(C)=CC[C@@H](O)[C@@H](C)[C@H]1CC[C@@]2(C)C3=C(CC[C@]12C)[C@@]1(C)CC[C@H](O)C(C)(C)[C@@H]1CC3 [Inotodiol, inotodiol]
number of mast cells in the small intestine [3]: decreased number of mast cells | concentration of egg white protein-specific IgE in serum [4]: no substantial change in the concentration of IgE | rectal temperature after induced mast cell degranulation (mast cell degranulation): did not decrease the rectal temperature | amount of IL-5, IL-13, and IFN-γ (cytokine expression by Th2 CD4+ T cells) [5]: not substantially different from the expression amount of IL-5, IL-13, and IFN-γ | anaphylaxis score [6]: lower anaphylaxis score than the food allergy-induced group | concentration of MCPT-1 in the blood after induced mast cell degranulation [1]: level of increase in concentration of MCPT-1 was significantly decreased | infiltration of eosinophils in the small intestine (number of stained eosinophil cells) [7]: decreased infiltration of eosinophils | number of CD4+ T cells expressing DO11.00 TCR [2]: significantly increased number of CD4^+T cells | diarrhea symptom score (stool symptom score) [8]: lower than that of the food allergy-induced group | concentration of MCPT-1 in serum [9]: decreased significantly

CC(C)CCC[C@@H](C)[C@H]1CC[C@H]2[C@@H]3CC=C4C[C@@H](O)CC[C@]4(C)[C@H]3CC[C@]12C [cholesterol, reference compound]
number of mast cells in the small intestine [3]: little decrease in the number of eosinophils and mast cells | concentration of MCPT-1 in the blood after induced mast cell degranulation [1]: MCPT-1 did not decrease | infiltration of eosinophils in the small intestine (number of stained eosinophil cells) [7]: little decrease in the number of eosinophils and mast cells

Source: patent US11896601B2, “Composition for prevention or treatment of allergic disease including inotodiol compound as active ingredient” (CARBOEXPERT INC., priority 2018, dated 2024)
